Reference: ChEMBL document CHEMBL1909046, “DrugMatrix in vitro pharmacology data”

Assays:
[1] = DRUGMATRIX: Nicotinic Acetylcholine radioligand binding (ligand: [125I] Epibatidine); type: cell membranes, Membrane; details: imr-32; Not Active = under 50% inhibition at 10 µM
[2] = molecular target: T1, Amine oxidase [flavin-containing] A (Homo sapiens, UniProt P21397); assay: DRUGMATRIX: Monoamine Oxidase MAO-A enzyme inhibition (substrate: Kynuramine); parameters: species or system BTI-TN-5B1-4; details: bti-tn-5b1-4; Not Active = under 50% inhibition at 10 µM
T1 sequence (P21397 whole entry): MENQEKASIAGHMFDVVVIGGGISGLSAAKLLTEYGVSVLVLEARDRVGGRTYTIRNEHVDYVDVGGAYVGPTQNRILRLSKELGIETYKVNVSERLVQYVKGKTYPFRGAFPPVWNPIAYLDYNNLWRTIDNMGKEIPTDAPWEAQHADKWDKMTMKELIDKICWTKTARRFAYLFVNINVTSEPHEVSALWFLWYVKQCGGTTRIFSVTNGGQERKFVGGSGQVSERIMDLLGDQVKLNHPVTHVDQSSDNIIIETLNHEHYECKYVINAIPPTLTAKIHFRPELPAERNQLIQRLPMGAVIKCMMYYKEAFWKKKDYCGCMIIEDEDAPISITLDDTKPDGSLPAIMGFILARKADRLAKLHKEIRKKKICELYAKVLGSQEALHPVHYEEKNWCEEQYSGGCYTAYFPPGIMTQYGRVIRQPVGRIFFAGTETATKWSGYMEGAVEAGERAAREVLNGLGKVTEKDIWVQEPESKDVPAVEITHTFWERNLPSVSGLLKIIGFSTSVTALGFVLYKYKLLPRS

[3] = DRUGMATRIX: Glutamate, NMDA, Phencyclidine radioligand binding (ligand: [3H] TCP); type: cell membranes, Rattus norvegicus, Wistar, Cerebral cortex, Membrane; details: Not Active = under 50% inhibition at 10 µM
[4] = molecular target: Sigma non-opioid intracellular receptor 1 (Homo sapiens, UniProt Q99720); assay: DRUGMATRIX: Sigma1 radioligand binding (ligand: [3H] Haloperidol); type: cell membranes, Jurkat, Membrane; details: jurkat; Not Active = under 50% inhibition at 10 µM
[5] = molecular target: T2, 3-hydroxy-3-methylglutaryl-coenzyme A reductase (Homo sapiens, UniProt P04035); parameters: species or system Escherichia coli;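 further: enzyme inhibition assay of HMG-CoA reductase using radiolabeled [14C]HMG-CoA as substrate; in other assays of this panel Not Active means under 50% inhibition at 10 µM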
T2 sequence (P04035 whole entry): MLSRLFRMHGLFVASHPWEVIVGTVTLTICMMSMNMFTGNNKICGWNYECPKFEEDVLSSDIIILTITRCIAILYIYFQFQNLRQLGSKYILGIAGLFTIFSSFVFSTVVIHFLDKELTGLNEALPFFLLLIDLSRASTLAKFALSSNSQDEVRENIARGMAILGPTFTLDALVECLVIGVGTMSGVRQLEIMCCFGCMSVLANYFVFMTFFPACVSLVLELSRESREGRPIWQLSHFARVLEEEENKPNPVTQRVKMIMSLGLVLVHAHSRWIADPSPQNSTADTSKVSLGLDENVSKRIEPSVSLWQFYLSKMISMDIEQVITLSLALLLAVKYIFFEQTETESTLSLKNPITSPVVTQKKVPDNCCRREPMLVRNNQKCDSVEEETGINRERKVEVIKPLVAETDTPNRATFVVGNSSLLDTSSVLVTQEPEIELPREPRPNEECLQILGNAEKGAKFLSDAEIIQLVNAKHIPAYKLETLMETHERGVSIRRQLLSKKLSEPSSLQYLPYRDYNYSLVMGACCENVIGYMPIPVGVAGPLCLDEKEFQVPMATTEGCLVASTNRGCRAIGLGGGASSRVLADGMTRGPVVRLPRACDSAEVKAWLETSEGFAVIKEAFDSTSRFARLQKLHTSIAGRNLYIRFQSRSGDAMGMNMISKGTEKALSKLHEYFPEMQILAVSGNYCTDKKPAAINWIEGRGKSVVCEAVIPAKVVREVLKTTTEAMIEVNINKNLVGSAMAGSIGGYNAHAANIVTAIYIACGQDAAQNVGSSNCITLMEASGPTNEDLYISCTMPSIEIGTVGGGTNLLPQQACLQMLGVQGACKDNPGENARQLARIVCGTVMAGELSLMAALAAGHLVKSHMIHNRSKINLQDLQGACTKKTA

[6] = molecular target: T3, Muscarinic acetylcholine receptor M2 (Homo sapiens, UniProt P08172); type: cell membranes, CHO-K1, Membrane; further: in other assays of this panel Not Active means under 50% inhibition at 10 µM
T3 sequence (P08172 whole entry): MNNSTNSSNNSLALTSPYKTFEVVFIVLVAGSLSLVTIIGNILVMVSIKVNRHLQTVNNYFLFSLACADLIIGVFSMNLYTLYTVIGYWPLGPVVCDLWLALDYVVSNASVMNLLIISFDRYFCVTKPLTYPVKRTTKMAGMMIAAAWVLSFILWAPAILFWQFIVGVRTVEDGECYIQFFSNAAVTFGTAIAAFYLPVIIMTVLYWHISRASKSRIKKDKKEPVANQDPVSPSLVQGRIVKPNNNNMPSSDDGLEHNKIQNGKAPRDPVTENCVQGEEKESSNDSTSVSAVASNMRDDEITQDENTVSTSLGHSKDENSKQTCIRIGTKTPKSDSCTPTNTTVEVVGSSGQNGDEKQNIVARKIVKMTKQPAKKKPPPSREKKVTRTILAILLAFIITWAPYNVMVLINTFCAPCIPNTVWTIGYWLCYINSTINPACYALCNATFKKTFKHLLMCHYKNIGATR

Sigma non-opioid intracellular receptor 1, sequence (Q99720 whole entry): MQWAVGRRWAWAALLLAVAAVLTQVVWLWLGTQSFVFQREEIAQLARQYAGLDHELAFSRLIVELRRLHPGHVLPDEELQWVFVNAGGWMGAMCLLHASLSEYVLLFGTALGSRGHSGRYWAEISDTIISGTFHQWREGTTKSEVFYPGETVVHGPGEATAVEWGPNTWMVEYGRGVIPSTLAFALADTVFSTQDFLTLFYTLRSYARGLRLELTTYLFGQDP

Row | SMILES | IC50 [1] | Ki [1] | IC50 [2] | IC50 [3] | Ki [3] | IC50 [4] | IC50 [5] | IC50 ([6]; cho-k1) | IC50 ([6]; read-out: IC50) [nM] | Ki ([6]; read-out: Ki) [nM]
1 | NC(=O)CN1CCCC1=O | Not Active | Not Active | Not Active | Not Active | Not Active | Not Active | Not Active | Not Active |  | 
2 | C=CCO [ALLYL ALCOHOL] | Not Active | Not Active | Not Active | Not Active | Not Active | Not Active | Not Active | Not Active |  | 
3 | CCN1CCN(C(=O)N[C@@H](C(=O)N[C@@H]2C(=O)N3[C@@H]2SC(C)(C)[C@@H]3C(=O)O)c2ccccc2)C(=O)C1=O [PIPERACILLIN] | Not Active | Not Active | Not Active | Not Active | Not Active | Not Active | Not Active | Not Active |  | 
4 | CCCCCCNC(=O)n1cc(F)c(=O)[nH]c1=O [CARMOFUR] | Not Active | Not Active | Not Active | Not Active | Not Active | Not Active | Not Active | Not Active |  | 
5 | CCN(CCO)CCCC(C)Nc1ccnc2cc(Cl)ccc12 (centres undefined) [HYDROXYCHLOROQUINE] | Not Active | Not Active | Not Active | Not Active | Not Active | Not Active | Not Active |  | 2950 | 1050
6 | Clc1cc(Cl)c(OCC#CI)cc1Cl [HALOPROGIN] | Not Active | Not Active | Not Active | Not Active | Not Active | Not Active | Not Active | Not Active |  | 
7 | O=c1[nH]cnc2c1ncn2[C@H]1CC[C@@H](CO)O1 [DIDANOSINE] | Not Active | Not Active | Not Active | Not Active | Not Active | Not Active | Not Active | Not Active |  | 
8 | Cl.NC[C@H]1CC[C@H](C(=O)Oc2ccc(CCC(=O)O)cc2)CC1 [CETRAXATE HYDROCHLORIDE] | Not Active | Not Active | Not Active | Not Active | Not Active | Not Active | Not Active | Not Active |  | 
9 | COc1cc([C@@H]2c3cc4c(cc3[C@H](O)[C@H]3COC(=O)[C@H]23)OCO4)cc(OC)c1OC [PODOFILOX] | Not Active | Not Active | Not Active | Not Active | Not Active | Not Active | Not Active | Not Active |  | 
10 | COc1cc(/C=C/C(=O)O)ccc1O [FERULATE] | Not Active | Not Active | Not Active | Not Active | Not Active | Not Active | Not Active | Not Active |  | 
11 | O=C(O)CCc1nc(-c2ccccc2)c(-c2ccccc2)o1 [OXAPROZIN] | Not Active | Not Active | Not Active | Not Active | Not Active | Not Active | Not Active | Not Active |  | 
